From paper PMC7281206, “Cysteine Cathepsins Inhibition Affects Their Expression and Human Renal Cancer Cell Phenotype” (Cancers, 2020)
Entries after “also recorded” stand apart in the source; their conditions may differ. *: point of attachment. CH2F = FC*

Legend:
769-P cells = assay: Cell viability/proliferation (MTT), 769-P; format: cell-based, human; details: 2.5–250 μM; for Cell viability: 72 h; for Effect on cell proliferation: within 48 h
Description: Figure 3 The effect of the peptide inhibitors on human 769-P and A498 renal cancer cell proliferation and proteolytic activity. (a) 769-P and (b) A498 cells were treated with increasing doses of Ac-PLVE-FMK (red bars) and Ac-VLPE-FMK (blue bars) (2.5–250 μM). Cell proliferation was measured after 24, 48, and 72 h via MTT (3-(4,5-dimethylthiazol-2-yl)-2,5-diphenyltetrazolium bromide) assay. Data represent the mean (±S.D.) of at least three independent experiments, each performed in triplicate. (c) Fluorescence microscopy evaluation and quantification of the cell proteolytic activity in 769-P and (d) A498 cells towards the fluorogenic substrate Ac-PLVQ-AMC in the absence or presence of Ac-PLVE-FMK and Ac-VLPE-FMK. The cells were seeded in a 96-well plate and after exposure to the peptides for 30 min prior incubation with the fluorescent substrate Ac-PLVQ-AMC for 10 min. Data are expressed as mean (±S.D.), and significance was calculated through one-way ANOVA followed by Dunnet’s test. * = p < 0.05, ** = p < 0.01, *** = p < 0.001.
The human renal cancer cell line lines […], A498 were obtained from Dr. Vadim Pokrovsky (purchased from American Type Culture Collection). The cells were cultured in RPMI 1640, supplemented with 10% fetal bovine serum and 1% mixture of antibiotics penicillin-streptomycin (all from Gibco, Waltham, MA, USA) at 5% CO2 and 37 °C in a humidified chamber. Cells were grown to confluence and harvested by trypsinization, using a 0.25 mg/mL trypsin/EDTA solution (ThermoFisher, Carlsbad, CA, USA) and resuspended in the fresh culture medium. Viable cells were enumerated on the Countess II FL Automated Cell Counter (ThermoFisher, Waltham, MA, USA), following Trypan Blue staining. The cell lines were tested for mycoplasma contamination regularly, using the Molecular Probes™ MycoFluor Mycoplasma Detection Kit (ThermoFisher, Waltham, MA, USA).
The cell number was evaluated by counting viable cells using the MTT (3-(4,5-dimethylthiazol-2-yl)-2,5-diphenyltetrazolium bromide) colorimetric assay. A total of 2 × 10^4 cells/well were seeded on independent 96-well plates for each time point (0, 24, 48, and 72 h), with five replicates and treated with two inhibitors (2.5–250 μM). Then, 10 µL of the MTT reagent was added to each well, and cells were incubated for another 5 h. Next, the absorbance value was measured using a CLARIOstar® Plus plate reader (BMG Labtech, Ortenberg, Germany) at 490 nm. Triplicate wells were assayed, and S.D.s were determined.

LAMP-1 in 769-P cells = assay: LAMP-1 protein expression (western blot), 769-P; format: cell-based, human; details: 20 μM, 24, 48, 72 h
Description: Figure 7 Effect of the peptides on LAMP-1 protein expression: (a) Western blotting analysis of LAMP-1 after treatment with PLVE and VLPE (20 μM) for 24, 48, and 72 h in 769-P cells. (b) Confocal microscopy evaluation of LAMP-1 expression after 48 and 72 h of treatment with PLVE and VLPE (20 μM) in 769-P cells. (c) Western blotting analysis of LAMP-1 after treatment with PLVE and VLPE (20 μM) for 24, 48, and 72 h in A498 cells. (d) Confocal microscopy evaluation of LAMP-1 expression after 48 and 72 h of treatment with PLVE and VLPE (20 μM) in A498 cells. Data are represented as mean ± SD of at least three replicates. Significance was calculated through one-way ANOVA followed by Dunnet’s test. * = p < 0.05, ** = p < 0.01, *** = p < 0.001. Cells were seeded in RPMI containing 10% FBS and cultured for 24 h. Next, 30 µM of inhibitors were added to the culture medium and incubated for 24, 48, and 72 h. Control cells were treated with 0.01% DMSO. At all time points the samples were lysed in 50 mM Tri-HCl (pH 8.0), 100 mM NaCl, 0.5% NP-40, 1% Triton X-100, 1× protease inhibitor cocktail (ThermoFisher, Waltham, MA, USA). The 50 µg of protein lysates were separated by electrophoresis on a 12% SDS-PAGE gel and transferred to the PFDF membranes. […] After an additional wash (three times with PBS), reactive bands were detected by chemiluminescence (Bio-Rad, Irvine, CA, USA). […]

Ac-PLVE-CH2F [Ac-PLVE-FMK]
Cell viability (769-P cells): cell viability increased, reaching values not significantly different from the control cells
Effect on cell proliferation (769-P cells): cytostatic properties on both cell lines only within 48 h of treatment
LAMP-1 protein expression (LAMP-1 in 769-P cells): significantly increased the expression of this lysosomal biomarker at all the considered time points, reaching significant peaks at 48 h of treatment

Ac-VLPE-CH2F [Ac-VLPE-FMK]
Cell viability (769-P cells): cell viability increased, reaching values not significantly different from the control cells
Effect on cell proliferation (769-P cells): cytostatic properties on both cell lines only within 48 h of treatment
LAMP-1 protein expression (LAMP-1 in 769-P cells): significantly increased the expression of this lysosomal biomarker at all the considered time points, reaching significant peaks at 48 h of treatment; also recorded: more efficient than Ac-PLVE-FMK in increasing the expression of LAMP-1
